These results are taken from US20220125746A1, “METHOD OF PREVENTING OR TREATING TREATMENT-INDUCED GASTROINTESTINAL INJURY” (priority 2019, published 2022).

Data set [1] deals with colon cancer cell line HCT-116. Briefly: PUMA-induced apoptosis inhibition in HCT-116.
Description: (§2) PUMAi was added to cells at 25 uM at the same time as CPT.
(§3) A minimum of 300 cells per treatment were analyzed in triplicate.
In data set [2] the test system is colon cancer cell line DLD1. Description: PUMA-induced apoptosis inhibition in DLD1.
Description: as §2, §3
In a further data set the target is T1, p53 (Rattus norvegicus, UniProt P10361).
T1 construct: host or cells: rat intestine in vivo
Conditions: rats, cited from earlier work.

For data set [3] the following is noted: colorectal cancer patients; cited from earlier work.
Another data set relates to C57BL/6J mice. Description: Survival and GI injury after three daily doses of CPT-11. The format is in vivo, mouse. To be noted: for lethality: three consecutive daily doses, C57BL/6J WT mice. The text has this:
(§1) Immediately after sacrifice, about 10-cm portion of the jejunum was removed and carefully rinsed with ice-cold saline. The tissue was opened longitudinally and tacked to a foam board for fixation overnight in 10% formalin. Tissues were then rolled up into “swiss rolls” and embedded in paraffin. For tumor analysis, flank tumors were removed, measured, and cut into pieces for either formalin fixation or flash freezing in a dry ice/ethanol bath. Tissue sections (5 um) were deparaffinized and rehydrated through graded ethanols. Histological analysis was performed by hematoxylin and eosin (H&E) staining.
; CPT-11). […] . […] BH3-only proteins BIM and NOXA were not induced by CPT-11 or affected by Puma KO (FIG. 8F). […] . […] . Histological analysis confirmed lethal GI injury in WT and p53 KO mice on day 5, showing severe loss of crypts and shortening of villi, which was abrogated in Puma KO mice (FIG. 1F).

A further data set relates to intestinal crypts. Description: CPT-11-induced intestinal crypt apoptosis in mice (TUNEL, active caspase-3). To be noted: single dose 200 mg/kg, WT mice, TUNEL and active caspase-3.
The next data set deals with LGR5+ stem cells. To be noted: after six doses of CPT-11.
In data set [4] the test system is Lewis lung carcinoma (LLC) tumors. Description: LLC tumor-bearing mice treated with CPT-11 six times over 2 weeks. The format is in vivo, mouse. Conditions: LLC tumor experiments. How it is done:
For tumor experiments, 4 million LLC cells [American Type Culture Collection (ATCC)] were injected into the flanks of WT and Puma KO mice and allowed to grow for 11 days. Mice were then treated with CPT-11 (200 mg/kg) three times per week for 2 weeks. PUMAi (10 mg/kg) or vehicle control was administered by intraperitoneal injection 2 hours before and 20 hours after each dose of CPT-11. Mice were sacrificed 4 hours after the final CPT-11 treatment.
For tumor experiments, mice were treated with CPT-11 three times per week for two weeks. Mice receiving PUMAi were treated 2 hours before each dose of CPT-11 and 20 hours after. Mice were sacrificed four hours after the final CPT-11 treatment (FIG. 13A). Tumor volumes were measured with calipers and calculated as volume=(length x width2)/2. Mice were 7-9 weeks old, and roughly equal numbers of male and female animals were used. To account for variations in starting body weights, the values in FIGS. 3 and 4 are expressed as a percentage of the respective mouse weights at the time of the first CPT-11 treatment.
as §1
Average villus height was determined by measuring 40 to 50 villi from different locations of the small intestine, from at least three different animals per group, and reported as means A} SEM. Measurements were made from the top of the crypt to the tip of the villus using 100 Å˜H&E images and SPOT 5.1 Advanced software (Diagnostic Instruments Inc.).
Neutrophil IF. Sections were prepared as described above. […] Sections were then incubated with AlexaFluor-594 goat antirat secondary antibodies (1:200; A11007; Invitrogen) for 1 hour at room temperature and counterstained with VectaShield plus DAPI.

Another data set concerns mouse colonic organoids. Briefly: Mouse colonic organoids treated with CPT. To be noted: CPT 500 nM 24 h. Type of data set: cell-based. How it is done: Fresh mucosal scrapings from 10 cm of jejunum were washed in cold PBS, resuspended in 700 ul of RNA lysis buffer, and homogenized in a Dounce homogenizer. RNA was isolated using the Quick-RNA MiniPrep kit (Zymo Research) according to the manufacturer's instructions. Organoids were freed from Matrigel using Cell Recovery Solution (Corning), as described in, before RNA isolation. Complementary DNA was generated from 2 ug of total RNA from mice or ˜100 ng of total RNA from colonic organoids and was pooled from three mice or three wells of organoid culture per treatment group using SuperScript III reverse transcriptase (Invitrogen) and random primers. Gene expression was normalized to Gapdh. Representative results are shown, and similar results were obtained in at least three independent experiments. Details on mouse and human primers are found in Tables 1 and 2.
Mouse crypt isolation, organoid development, and passage were done as previously described with minor modifications. In brief, the complete culture medium for mouse intestinal organoids was slightly modified as follows: advanced Dulbecco's modified Eagle medium (DMEM)/F12 (12634-010, Invitrogen) was supplemented with 100 units/ml penicillin/0.1 mg/ml streptomycin (Invitrogen), 2 mM GlutaMAX (ThermoFisher), 20% (vol/vol) FBS (S11150, ATLANTA Biologicals), and WRN-conditioned medium (50%, vol/vol). Freshly isolated crypts were cultured with the same medium plus 10 μM Y-27632 (Y0503 Sigma) and 100 μg/ml Primocin (ant-pm-1, InvivoGen). For CPT and PUMAi treatment, intestinal organoids were passaged and re-plated in 25 μL of Matrigel (356231, Corning) in 24-well plates 24 hours before treatment with CPT (0.5 μM, C9911, Sigma-Aldrich) and PUMAi (50 μM) for 24 hours. The CPT-containing medium was replaced with complete medium containing PUMAi (50 μM). Three groups (treatment control, CPT only, and CPT plus PUMAi) were set up. Organoids 100 μm or greater in diameter were enumerated on day 6 after CPT treatment. Similar results were obtained from at least three independent experiments with triplicate wells in each experiment.

Where a name gives a salt, the structure may show the parent alone.

T1 sequence (P10361 whole entry): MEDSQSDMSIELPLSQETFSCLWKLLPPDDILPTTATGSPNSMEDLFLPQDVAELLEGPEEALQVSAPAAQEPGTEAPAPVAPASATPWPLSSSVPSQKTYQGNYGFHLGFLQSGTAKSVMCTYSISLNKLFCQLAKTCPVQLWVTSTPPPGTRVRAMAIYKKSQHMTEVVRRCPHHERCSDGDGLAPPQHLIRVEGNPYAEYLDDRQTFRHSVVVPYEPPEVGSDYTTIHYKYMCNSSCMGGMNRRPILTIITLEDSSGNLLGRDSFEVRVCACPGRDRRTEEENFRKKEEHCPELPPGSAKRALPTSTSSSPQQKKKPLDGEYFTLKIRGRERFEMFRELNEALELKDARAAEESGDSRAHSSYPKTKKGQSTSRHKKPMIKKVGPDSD
Description for LGR5+ stem cells: WT and Puma KO mice carrying the Lgr5-EGFP-IRES-creERT2 marking allele were treated with CPT-11 and PUMAi over 2 weeks as in FIGS. 5A-5G and analyzed for intestinal phenotypes. (FIG. 6A) GFP (LGR5) immunofluorescence in intestinal crypts. Arrows indicate LGR5^+ (GFP) crypts. Scale bar, 100 um. (FIG. 6B) Quantitation of intestinal crypts containing at least one GFP^+ (LGR5^+) cell. (FIG. 6C) Top: Olfm4 RNA ISH in intestinal crypts. Scale bar, 50 um. Asterisks indicate Olfm4+ crypt cells. Bottom: Percentage of crypts containing at least one Olfm4+ cell. (FIG. 6D) MMP7 immunofluorescence in intestinal crypts. Scale bar, 100 um. (FIG. 6E) Quantitation of MMP7+ crypt cells at the crypt base (CBC region). (FIG. 6F) Top: GFP (LGR5) and MMP7 immunofluorescence in intestinal crypts. Scale bar, 20 um. Asterisks indicate LGR5^+/MMP7^+ cell pairs. Bottom: Quantitation of LGR5^+/MMP7^+ cell pairs per crypt. In (FIG. 6A), (FIG. 6D), and (FIG. 6F), DAPI was used to stain nuclei. In (FIG. 6B), (FIG. 6C), (FIG. 6E), and (FIG. 6F), values are means+SEM; n=3 mice. *P<0.05, **P<0.01, and ***P<0.001 (one-way ANOVA with Tukey post hoc test).
LGR5 (GFP) IF. Sections were deparaffinized and rehydrated through graded ethanols. Antigen retrieval was performed by boiling for 10 minutes in 0.1 M citrate buffer (pH 6.0) with 1 mM EDTA. Non-specific antibody binding was blocked using 20% goat serum (Invitrogen) at room temperature for 30 min. […] Sections were then washed in PBS and mounted with VectaShield+DAPI (Vector Labs).
MMP7 IF. Sections were prepared as described above. Non-specific antibody binding was blocked using 20% chicken serum (Invitrogen) at room temperature for 30 min. Sections were washed in PBS and incubated overnight at 4 °C in a humidified chamber with 1:100 diluted goat anti-MMP7 (AF2967; R&D Systems). […] Sections were then washed in PBS and mounted with VectaShield+DAPI (Vector Labs) for visualization.
LGR5(GFP)/1VIMP7 IF. Sections were prepared as described above. Non-specific antibody binding was blocked using 20% chicken serum (Invitrogen) at room temperature for 30 min. Sections were then stained for GFP as described above, followed by staining for MMP7 as described.
ISH for Olfm4 was carried out with the RNAscope 2.0 BROWN kit (Advanced Cell Diagnostics) according to the manufacturer's instructions. Briefly, tissue sections were baked for 60 min at 60 ÅåC, then deparaffinized in xylene, and rehydrated through graded ethanols. Sections then underwent three pretreatment steps, probe hybridization, six amplification steps, development, and counterstaining.
Description for intestinal crypts: Puma+/+ (WT) and Puma−/− (Puma KO) mice (52) were generated in-house by heterozygote breeding. WT and Puma KO alleles were genotyped from genomic DNA isolated from tail snips, as described (52). p53−/− (p53 KO) mice were purchased from the Jackson Laboratory. […] All strains are in or have been backcrossed with the C57BL/6 background for more than 10 generations (F10). Mice were housed in microisolator cages in a room illuminated from 07:00 to 19:00 hours (12:12-hour light/dark cycle), with access to water and chow ad libitum.
Rehydrated sections were treated with 3% hydrogen peroxide (immunochemistry only), followed by antigen retrieval for 10 min in boiling 0.1 M citrate buffer (pH 6.0) with 1 mM EDTA. Apoptosis was analyzed by TUNEL staining with the ApopTag Peroxidase In Situ Apoptosis Detection kit (Chemicon International) according to the manufacturer's instructions.
Active caspase 3 IHC. Sections were deparaffinized and rehydrated through graded ethanols. Rehydrated sections were then treated with 3% hydrogen peroxide, followed by antigen retrieval for 10 minutes in boiling 0.1 M citrate buffer (pH 6.0) with 1 mM EDTA. Non-specific antibody binding was blocked using 20% goat serum (Invitrogen) at room temperature for 30 minutes.

As to `Cc1ccc(OCC(=O)Nc2ccc(S(N)(=O)=O)cc2)cc1` [Compound 7f], in data set [1], the “Apoptosis inhibition of HCT-116” value was −8% (no inhibition). The “Apoptosis inhibition of DLD1” value in data set [2] is given as −2% (no inhibition).

Consider `N#CCc1ccc(NC(=O)COc2ccc3c(c2)CCC3)cc1` [Compound 7g], for which the “Apoptosis inhibition of HCT-116” value in data set [1] is −17% (no inhibition). The “Apoptosis inhibition of DLD1” value in [2] is 24%.

As to `Cc1ccc(C(=O)Cn2c3c(sc2=N)CCCC3)cc1` [pifithrin-α], the “delayed cell death and onset of mucositis” value on p53 (CPT-11) is “did not affect delayed cell death or the onset of mucositis”. Also, on p53 (within the first several hours), the CPT-11-induced intestinal apoptosis entry is given as “reduced CPT-11-induced intestinal apoptosis”.

In the case of `O=c1[nH]cc(F)c(=O)[nH]1` [Compound 5-FU, 5-fluorouracil], the “patients with chemotherapy induced diarrhea” value in [3] is listed as 50%.

In the case of `CC(C)CNC(=O)c1ccc2c(c1)nc1n2CCN(C(C)(C)CO)C1` [Compound 20722356], the “Apoptosis inhibition of DLD1” value in data set [2] turned out to be 36%.

On to `Cc1ccc(OCC(=O)Nc2ccc(N3CCOCC3)cc2)cc1` [Compound 7e], for which, in data set [1], the “Apoptosis inhibition of HCT-116” value came out at 44%. Also, the “Apoptosis inhibition of DLD1” value in data set [2] was 30%.

In the case of `COc1ccc(CCNC(=O)COc2ccc(C)cc2)cc1OC` [Compound V1], the “Apoptosis inhibition of HCT-116” value in [1] stood at 38%. Besides, the “Apoptosis inhibition of DLD1” value in data set [2] is 41%.

In the case of `Cc1ccc(/C=N/NC(=O)COc2ccc(C)c(C)c2)o1` [Compound 7i], the “Apoptosis inhibition of HCT-116” value in data set [1] is recorded as 13%. Also, in data set [2], the “Apoptosis inhibition of DLD1” value came out at 26%.

In the case of `Cc1ccc(OCC(=O)N/N=C/c2cccc(O)c2)cc1` [Compound 7b], the “Apoptosis inhibition of HCT-116” value in [1] amounted to 21%. Further, in data set [2], the “Apoptosis inhibition of DLD1” value is on record as −2% (no inhibition).

For the molecule `CCc1c2c(nc3ccc(OC(=O)N4CCC(N5CCCCC5)CC4)cc13)-c1cc3c(c(=O)n1C2)COC(=O)[C@]3(O)CC` [CPT-11, irinotecan hydrochloride, reference compound], in [3], the “patients with severe diarrhea and nausea” value is reported as “more than 50%”. The lethality is on record as 30% in the data set with C57BL/6J mice (180 mg/kg per day), 90% with C57BL/6J mice (215 mg/kg per day) and 100% with C57BL/6J mice (250 mg/kg per day). For the same molecule, the “survival at the LD90 of CPT-11, without PUMAi” value in the data set with C57BL/6J mice (CPT-11 215 mg/kg per day x3, WT mice) turned out to be 10%. In the data set with intestinal crypts, the “time of peak crypt apoptosis” value came out at 6 h. In the data set on LGR5+ stem cells, the “drop in Olfm4+ crypts (RNA ISH)” value was determined as 93%. In addition, the “reduction of LGR5+ crypt cells and fraction of LGR5+ crypts” value with LGR5+ stem cells is reported as “more than 90%”. The results for the “% mice compieting treatment” value in data set [4] (PUMA KO mice) and in [4] (WT mice) were 100% (6/6) and 73% (8/11), respectively.

With `COc1cccc(/C=C/NC(=O)CNc2ccc(C)cc2)c1` [Compound 7h], in data set [1], the “Apoptosis inhibition of HCT-116” value came to 33%. Besides, the “Apoptosis inhibition of DLD1” value in [2] was 30%.

On to `CC[C@@]1(O)C(=O)OCc2c1cc1n(c2=O)Cc2cc3ccccc3nc2-1` [CPT, camptothecin, reference compound], for which the “effect of CPT on mouse colonic organoids” value in the data set on mouse colonic organoids is “induced growth suppression and activation of caspase-3”.

With `CCCCc1c(C)nc(N2CCN(CCO)CC2)[nH]c1=O` [Compound 20647237], in data set [2], the “Apoptosis inhibition of DLD1” value is listed as 21%.

Take `Cc1ccc(OCC(O)CN2CCN(CCO)CC2)cc1C` (stereo not drawn) [Compound 21487182]: in [1], the “Apoptosis inhibition of HCT-116” value is 35%. In addition, the “Apoptosis inhibition of DLD1” value in data set [2] is recorded as 61%.

As to `Cc1ccc(OCC(=O)N/N=C/c2cccc(O)c2)cc1C` [Compound 7a], the “Apoptosis inhibition of HCT-116” value in data set [1] was 33%. Also, the “Apoptosis inhibition of DLD1” value in [2] was 41%.

Consider `O=C(CCc1ccccc1)N/N=C/c1cccc(O)c1` [Compound 7d], for which the “Apoptosis inhibition of HCT-116” value in data set [1] was 21%. The “Apoptosis inhibition of DLD1” value in data set [2] is 24%.

Consider `CCc1ccc(OCC(=O)NCc2ccc3c(c2)OCO3)cc1` [Compound V2], for which the “Apoptosis inhibition of HCT-116” value in data set [1] was 40%. In addition, the “Apoptosis inhibition of DLD1” value in [2] was 39%.

As to `CC(C)c1ccc(OCC(=O)N/N=C/c2cccnc2)cc1` [Compound 7j], the “Apoptosis inhibition of HCT-116” value in [1] is listed as −8% (no inhibition). Further, the “Apoptosis inhibition of DLD1” value in data set [2] is 26%.

With `COc1cccc(/C=N/NC(=O)COc2cccc(C)c2)c1OC` [Compound 7c], the “Apoptosis inhibition of HCT-116” value in data set [1] was 21%. Also, the “Apoptosis inhibition of DLD1” value in data set [2] worked out at 26%.
